Measured values as given in PubChem BioAssay (NCI).
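Growth conditions: 96-well plates. Treatment: test compound, 48 hours, 5 concentrations. Analysis: linear interpolation between bracketing concentrations; unreached endpoints set to highest concentration. The concentration for 50% growth inhibition is given as GI50. At the TGI there is no net growth.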

How the values were obtained:
Experiment in all cases: growth of human tumour cells (NCI), 48 h
ACHN renal = system: ACHN renal
CAKI-1 renal = system: CAKI-1 renal
PC-3 prostate = system: PC-3 prostate
SR leukemia = system: SR leukemia
NCI-H226 lung = system: NCI-H226 lung
SNB-19 CNS = system: SNB-19 CNS
786-0 renal = system: 786-0 renal
OVCAR-3 ovarian = system: OVCAR-3 ovarian
SK-MEL-28 melanoma = system: SK-MEL-28 melanoma

| Structure (SMILES) | TGI (ACHN renal) [µM] | TGI (CAKI-1 renal) [µM] | TGI (PC-3 prostate) [µM] | TGI (SR leukemia) [µM] | TGI (NCI-H226 lung) [µM] | TGI (SNB-19 CNS) [µM] | TGI (786-0 renal) [µM] | TGI (OVCAR-3 ovarian) [µM] | TGI (SK-MEL-28 melanoma) [µM] | GI50 (SR leukemia) [µM] |
| --- | --- | --- | --- | --- | --- | --- | --- | --- | --- | --- |
| CN(C)CC(C)(C)CN1c2ccccc2Sc2ccccc21 | 28.3 | 24.7 | 25.5 | 23.4 | 33.4 | 29.5 | 25.5 | 24.3 | 26.8 | – |
| C=CCOCn1cnc2c(=O)[nH]c(N)nc21 | > 100 | > 100 | > 100 | > 100 | > 100 | > 100 | > 100 | – | > 100 | – |
| Nc1ccc(C2SCC(=O)N2NS(=O)(=O)c2cccc(C(=O)O)c2)cc1 (stereo not given) | > 100 | > 100 | > 100 | > 100 | > 100 | > 100 | > 100 | > 100 | > 100 | – |
| COc1ccc(C=O)cc1OS(=O)(=O)C(F)(F)C(F)(F)C(F)(F)C(F)(F)F | > 100 | > 100 | > 100 | > 24.4 | > 100 | > 100 | > 84.1 | > 69.2 | 97.5 | – |
| COC(=O)[C@H](Cc1ccccc1)NC(=O)N(CCNC(=O)OC(C)(C)C)c1ccccc1 | > 100 | > 100 | > 100 | > 100 | > 100 | > 100 | > 100 | > 100 | > 100 | – |
| O=C(NC(OCc1ccccc1)(C(F)(F)F)C(F)(F)F)OCc1ccccc1 | 29.2 | 27.5 | 26.7 | 26.8 | 27.7 | 29.2 | 30.1 | 28.6 | 31.5 | – |
| CCOC(=O)c1cc([N+](=O)[O-])c(Sc2ncnc3nc[nH]c23)c([N+](=O)[O-])c1 | 19.9 | 12.7 | 27.9 | 83.3 | 17.3 | 32.4 | 7.98 | 7.52 | 29.2 | – |
| OCC1OC(n2cnc3c(Cl)nc(Nc4ccc(Cl)c(Cl)c4)nc32)CC1O (stereo not given) | 19.9 | 33.7 | 37.1 | – | 20.2 | > 50 | 19.4 | 46.1 | – | – |
| CCOC(=O)CC1Nc2ccccc2C12CCc1c([nH]c3ccccc13)C2C(=O)OCC (stereo not given) | > 100 | > 100 | > 100 | > 100 | – | > 100 | > 100 | > 100 | > 100 | – |
| C/C(=N\O)c1cccc(Nc2c3ccccc3nc3occc23)c1 | 38.6 | 9.3 | > 100 | > 100 | 54.8 | > 100 | 28.3 | 80.1 | 25.6 | – |
| C[C@@H](c1ccccc1)N1CO[C@@]2(C#Cc3ccc4c(c3)OCO4)CCC[C@@H]12 | > 100 | 34.6 | 27.1 | 32.5 | 38.6 | 30.3 | 36 | – | 39 | – |
| COc1ccc(/C=C/C(=O)CCN2CCN(CCC(=O)/C=C/c3ccc(OC)cc3)CC2)cc1 | 27.2 | 26.3 | 25.5 | – | 52.8 | > 100 | 10.9 | 28.8 | 28.4 | – |
| NS(=O)(=O)c1ccc(NC(=O)c2ccc3nc4ccccc4c(Nc4ccc(S(N)(=O)=O)cc4)c3c2)cc1 | > 100 | > 100 | > 100 | > 100 | > 100 | > 100 | > 100 | > 100 | > 100 | – |
| CC(C)[Si](Oc1ccc(CC2N(C(=O)c3ccc([N+](=O)[O-])cc3)C(CCc3ccccc3)CC2(C)C=O)cc1)(C(C)C)C(C)C (stereo not given) | > 100 | > 100 | > 100 | > 100 | 98.2 | 59.4 | > 100 | > 100 | > 100 | – |
| O=C(/C=C/c1cccc(Br)c1)N1CCN(CCOC(c2ccccc2)c2ccccc2)CC1 | > 100 | > 100 | > 100 | 38.4 | > 100 | > 100 | > 100 | > 100 | > 100 | – |
| CCCCCCc1cc2cc(C(=O)Nc3cccc(F)c3)c(=N)oc2cc1O | > 100 | 10.2 | 14 | 6.29 | – | 23.9 | 11.5 | 23.7 | 9.51 | – |
| CCOc1cc2c(cc1O)C(=O)C[C@@H]1[C@@H]2CC[C@]2(C)[C@@H](O)CC[C@@H]12 | > 100 | > 100 | > 82.5 | – | 17 | > 55.2 | > 53.8 | 1.7 | > 73.5 | – |
| COC(=O)c1c2c(cc3c1CC1(C3)Cc3cc4c(c(C(=O)OC)c3C1)CCC4)CCC2 | > 100 | – | > 100 | > 100 | > 100 | – | > 100 | > 100 | – | – |
| O=C(Nc1ccc(F)cc1)c1cc2c(cc1Cl)Sc1nccn1S2(=O)=O | > 100 | > 100 | > 100 | – | > 100 | > 100 | > 100 | > 100 | > 100 | – |
| COc1ccc(Nc2cc(=O)[nH]c(=O)[nH]2)cc1 | > 100 | – | > 100 | > 100 | > 100 | > 100 | > 100 | > 100 | > 100 | – |
| NC1NCCC(=O)N1CCc1c[nH]c2ccccc12 (stereo not given) | 55.5 | 94.4 | 44.1 | 57.7 | 66.3 | > 100 | 37.6 | 48.4 | 34.9 | – |
| Cc1cc(N=Cc2c(CO)cnc(C)c2O)c(N=Cc2c(CO)cnc(C)c2O)cc1C | > 100 | > 100 | > 100 | > 100 | > 100 | > 100 | > 100 | > 100 | > 100 | 41.2 |
| Cn1c(=S)[nH]c(N)c(Cc2ccccc2)c1=O | > 100 | > 100 | > 100 | > 100 | > 100 | > 100 | > 100 | > 100 | > 100 | – |
